Laboratory results as given in US20230192878A1, “METHODS, THERAPIES AND USES FOR TREATING CANCER” (PFIZER INC., priority 2020, published 2023).

Key:
MM.1S-PD-L1 = assay: Subcutaneous MM.1S-PD-L1 multiple myeloma mouse model; assay type: in vivo; settings: alone or +anti-PD-1 5 mg/kg, dosing from Day 21
Protocol: MM.1S multiple myeloma cells were engineered to express PD-L1 and are referred to as MM.1S-PD-L1. Pre-activated and expanded T cells (20×10^6) were administered on Day 19 after MM.1S-PDL1 tumor cell inoculation subcutaneously (SC). BCMAxCD3 bispecific (0.3 or 1 mg/kg) or negative bispecific (1 mg/kg) was administered IV on Day 21 and dosed Q7Dx3. Anti-PD-1 mAb was administered at 5 mg/kg intraperitoneally (IP) twice a week starting on Day 21. Tumor measurements were recorded 2 to 3 times a week using digital calipers. N (at study start) is 5-12 animals per group.

[1] = tested on: advanced multiple myeloma; assay: First in human Phase 1 clinical study: patient response per IMWG; assay type: in vivo
Source text: This Example illustrates an ongoing Phase 1 open-label, multicenter clinical study of PF-06863135 (BCMAxCD3 bispecific) as monotherapy and in combination with sasanlimab, lenalidomide or pomalidomide, in adult patients with advanced multiple myeloma who have relapsed from or are refractory to standard therapy. The study has been registered on ClinicalTrials.gov with identifier NCT03269136 and was first posted August 2017. Study results for Part 1 of the trial and additional arms for the study are described in this Example.
Part 1 of the Study is the […] single agent dose escalation arm at the dose levels of 0.1, 0.3, 1, 3, 10, 30, and 50 μg/kg Q1W by intravenous (IV) administration, and at the dose levels of 80, 130, 215, 360, 600 and 1000 μg/kg Q1W by subcutaneous (SC) administration. Upon reaching maximum tolerated dose (MTD)/maximum administered dose (MAD), patients can be treated at a dose level selected from the foregoing dose levels described in this paragraph, and below the MTD/MAD fora Q2W administration, both IV and SC, to further support the recommended phase 2 dose (RP2D) decision. For the study, dose limiting toxicity observation period is set at 21 days for Q1W dosing and 28 days for Q2W dosing. The treatment cycle, aka cycle, for Q1W dosing would be 3 weeks, and for Q2W dosing would be four weeks.
Clinical Outcome of Part 1 of the Study. As of 15 Apr. 2020, a total of 23 patients were enrolled in Part 1 of the study and had been treated with PF-06863135 administered intravenously (IV) at 0.1 (N=2), 0.3 (N=3), 1 (N=2), 3 (N=3), 10 (N=2), 30 (N=5), and 50 (N=6) μg/kg. As of Aug. 21, 2020, a total of 30 patients were enrolled in Part 1 of the study and had been treated with PF-06863135 administered subcutaneously (SC) at 80 (N=6), 130 (N=4), 215 (N=4), 360 (N=4), 600 (N=6) and 1000 (N=6) μg/kg. Safety and efficacy data were available for in 23 IV and 30 SC treated patients per IMWG (International Myeloma Working Group) criteria.
Part 1.1 of the Study is an alternative maintenance dose escalation arm for single agent PF-06863135. If excessive toxicity occurs or the maximum tolerated dose (MTD)/maximum administered dose (MAD) is reached at a dose level that is earlier than desired in Part 1 of the study described above, a priming dose will be administered one week prior to the day 1 cycle 1 administration of the dose (maintenance dose) at this dose level and for all subsequent dose levels in the dose escalation that may be initiated for Part 1.1. The priming dosing will be at a lower dose level than the maintenance dose.

OPM2-luc = assay: BCMAxCD3 bispecific mediated cell killing with human T cells, with or without GSI; assay type: cell-based; settings: 60 hours, with or without 1 μM GSI
Protocol: (§1) CD3^+ T cells from PBMCs (Stem Cell Technologies) were negatively selected using EasySep Human T cell enrichment kit (Stem Cell Technologies). Multiple myeloma cells expressing luciferase (MM.1S-luc, OPM2-luc, H929-luc, Molp8-luc, RPM18226-luc) were treated with 1 μM GSI […]. After 24 hours, cells were seeded with 50,000 CD3^+ pan T cells in a clear 96-well V-bottom plate. Cells were further treated with a range of BCMAxCD3 bispecific antibody concentrations with or without 1 μM GSI. 60 hours after treatment, luciferase activity in treated cells was analyzed using NeoLite reagent kit (Perkin Elmer) and acquired on VictorX multimode plate reader (Perkin Elmer). Cell viability was calculated by dividing luciferase activity of treated cells over luciferase activity of untreated control (no BCMAxCD3 bispecific antibody added).

MM.1S-luc = assay: as above; assay type: cell-based; settings: 60 hours, with or without 1 μM GSI
Protocol: as §1

RPMI8226 = assay: as above; assay type: cell-based; settings: 60 hours, with or without 1 μM GSI
Protocol: as §1

[2] = 600 μg/kg priming, 1000 μg/kg Q1W SC, N = 7
[3] = 600 μg/kg priming, 1000 μg/kg Q2W SC, N = 13

## PF-06863135: heterodimeric humanized full-length bispecific antibody with one BCMA binding arm and one CD3 binding arm
MM.1S-PD-L1; day 14 post tumor cell inoculation, BCMA × CD3 bispecific 0.3 mg/kg
  Tumor Volume ± SEM: 34.4 ± 9.5 mm^3
MM.1S-PD-L1; day 14 post tumor cell inoculation, BCMA × CD3 bispecific 1 mg/kg
  Tumor Volume ± SEM: 26.4 ± 7.5 mm^3
MM.1S-PD-L1; day 18 post tumor cell inoculation, BCMA × CD3 bispecific 0.3 mg/kg
  Tumor Volume ± SEM: 91.6 ± 18 mm^3
MM.1S-PD-L1; day 18 post tumor cell inoculation, BCMA × CD3 bispecific 1 mg/kg
  Tumor Volume ± SEM: 92 ± 17.1 mm^3
MM.1S-PD-L1; day 20 post tumor cell inoculation, BCMA × CD3 bispecific 0.3 mg/kg
  Tumor Volume ± SEM: 122.5 ± 20.7 mm^3
MM.1S-PD-L1; day 20 post tumor cell inoculation, BCMA × CD3 bispecific 1 mg/kg
  Tumor Volume ± SEM: 130.7 ± 24.6 mm^3
MM.1S-PD-L1; day 25 post tumor cell inoculation, BCMA × CD3 bispecific 0.3 mg/kg
  Tumor Volume ± SEM: 403 ± 59 mm^3
MM.1S-PD-L1; day 25 post tumor cell inoculation, BCMA × CD3 bispecific 1 mg/kg
  Tumor Volume ± SEM: 601.1 ± 70^ mm^3
MM.1S-PD-L1; day 28 post tumor cell inoculation, BCMA × CD3 bispecific 0.3 mg/kg
  Tumor Volume ± SEM: 403.3 ± 67.6 mm^3
MM.1S-PD-L1; day 28 post tumor cell inoculation, BCMA × CD3 bispecific 1 mg/kg
  Tumor Volume ± SEM: 482.9 ± 32.6 mm^3
MM.1S-PD-L1; day 32 post tumor cell inoculation, BCMA × CD3 bispecific 0.3 mg/kg
  Tumor Volume ± SEM: 603.6 ± 151.6 mm^3
MM.1S-PD-L1; day 32 post tumor cell inoculation, BCMA × CD3 bispecific 1 mg/kg
  Tumor Volume ± SEM: 410.5 ± 82.7 mm^3
MM.1S-PD-L1; day 35 post tumor cell inoculation, BCMA × CD3 bispecific 0.3 mg/kg
  Tumor Volume ± SEM: 835.1 ± 77.2 mm^3
MM.1S-PD-L1; day 35 post tumor cell inoculation, BCMA × CD3 bispecific 1 mg/kg
  Tumor Volume ± SEM: 627.9 ± 111.8 mm^3
MM.1S-PD-L1; day 39 post tumor cell inoculation, BCMA × CD3 bispecific 0.3 mg/kg
  Tumor Volume ± SEM: 1569.3 ± 151.8 mm^3
MM.1S-PD-L1; day 39 post tumor cell inoculation, BCMA × CD3 bispecific 1 mg/kg
  Tumor Volume ± SEM: 1436.8 ± 276.4 mm^3
[1]; 50 μg/kg IV
  Patients who achieved a complete response: 1 patient
[1]; 215 μg/kg SC, N = 4
  Patient Response: PR (patients): 1
  Patient Response: SD (patients): 1
  Patient Response: sCR (patients): 2
[1]; 360 μg/kg SC, N = 4
  Patient Response: PD (patients): 1
  Patient Response: VGPR (patients): 2
  Patient Response: sCR (patients): 1
[1]; 600 μg/kg SC, N = 6
  Patient Response: PD (patients): 1
  Patient Response: SD (patients): 1
  Patient Response: VGPR (patients): 2
  Patient Response: sCR (patients): 2
[1]; [2]
  Patient Response: CR (patients): 2
  Patient Response: PR (patients): 1
  Patient Response: VGPR (patients): 1
[1]; [3]
  Patient Response: PD (patients): 3
  Patient Response: PR (patients): 3
  Patient Response: SD (patients): 1
  Patient Response: VGPR (patients): 4
[1]; 1000 μg/kg SC, N = 6
  Patient Response: CR (patients): 1
  Patient Response: PD (patients): 1
  Patient Response: PR (patients): 1
  Patient Response: VGPR (patients): 3
[1]; IV cohorts (0.3-50 μg/kg)
  Subjects who achieved best response of stable disease: Ten
[1]; IV cohorts, at 3 μg/kg and 50 μg/kg IV
  Patients who achieved a minimal response: 2 patients
[1]; highest dose levels of 600 and 1000 μg/kg SC
  Clinical efficacy: clinical efficacy was seen in most patients
OPM2-luc; BCMAxCD3 0.00064 nM
  OPM2 cell viability (% control): 83.8 ± 3.4 % control
OPM2-luc; BCMAxCD3 0.0032 nM
  OPM2 cell viability (% control): 84.3 ± 3.1 % control
OPM2-luc; BCMAxCD3 0.016 nM
  OPM2 cell viability (% control): 68.4 ± 2.4 % control
OPM2-luc; BCMAxCD3 0.08 nM
  OPM2 cell viability (% control): 43.6 ± 6.4 % control
OPM2-luc; BCMAxCD3 0.4 nM
  OPM2 cell viability (% control): 3.1 ± 0.8 % control
OPM2-luc; BCMAxCD3 2 nM
  OPM2 cell viability (% control): 2.8 ± 0.8 % control
OPM2-luc; BCMAxCD3 10 nM
  OPM2 cell viability (% control): 2 ± 0.2 % control
OPM2-luc; BCMAxCD3 50 nM
  OPM2 cell viability (% control): 3.3 ± 0.3 % control
MM.1S-luc; BCMA × CD3 0.00001 nM
  MM.1S cell viability (% control): 80.6 ± 3.9 % control
MM.1S-luc; BCMA × CD3 0.00005 nM
  MM.1S cell viability (% control): 79.8 ± 2.9 % control
MM.1S-luc; BCMA × CD3 0.00026 nM
  MM.1S cell viability (% control): 78 ± 0.9 % control
MM.1S-luc; BCMA × CD3 0.00128 nM
  MM.1S cell viability (% control): 87.7 ± 4.4 % control
MM.1S-luc; BCMA × CD3 0.0064 nM
  MM.1S cell viability (% control): 108 ± 4.5 % control
MM.1S-luc; BCMA × CD3 0.032 nM
  MM.1S cell viability (% control): 2.5 ± 0.3 % control
MM.1S-luc; BCMA × CD3 0.16 nM
  MM.1S cell viability (% control): 1.7 ± 0.8 % control
MM.1S-luc; BCMA × CD3 0.8 nM
  MM.1S cell viability (% control): 2.4 ± 0.5 % control
MM.1S-luc; BCMA × CD3 4 nM
  MM.1S cell viability (% control): 1.3 ± 0.8 % control
RPMI8226; BCMAxCD3 0.00064 nM
  RPMI8226 cell viability (% control): 113.2 ± 10.6 % control
RPMI8226; BCMAxCD3 0.0032 nM
  RPMI8226 cell viability (% control): 130.5 ± 19.5 % control
RPMI8226; BCMAxCD3 0.016 nM
  RPMI8226 cell viability (% control): 113.4 ± 1.3 % control
RPMI8226; BCMAxCD3 0.08 nM
  RPMI8226 cell viability (% control): 54.2 ± 16.9 % control
RPMI8226; BCMAxCD3 0.4 nM
  RPMI8226 cell viability (% control): 28.7 ± 13.6 % control
RPMI8226; BCMAxCD3 2 nM
  RPMI8226 cell viability (% control): 25.7 ± 5.5 % control
RPMI8226; BCMAxCD3 10 nM
  RPMI8226 cell viability (% control): 19.9 ± 1.1 % control
RPMI8226; BCMAxCD3 50 nM
  RPMI8226 cell viability (% control): 19.4 ± 5 % control
